The experiment relates to MV-4-11 cells. Put plainly: Gene expression microarray analysis (Affymetrix PrimeView) and GSEA. It counts as cell-based, human. On the set-up: RFU PODN (11730768_x_at) / Fold change /veh PODN (11730768_x_at) / RFU LINC00158 (11744669_a_at) / Fold change /veh LINC00158 (11744669_a_at) / RFU DUSP10 (11751237_a_at) / Fold change /veh DUSP10 (11751237_a_at) / RFU ID3 (11757404_x_at) / Fold change /veh ID3 (11757404_x_at) / RFU PLEKHG5 (11737974_s_at) / Fold change /veh PLEKHG5 (11737974_s_at) / RFU LRRC4B (11730491_at) / Fold change /veh LRRC4B (11730491_at) / RFU GIMAP4 (11747438_a_at) / Fold change /veh GIMAP4 (11747438_a_at) / RFU KRT8 (11758183_x_at) / Fold change /veh KRT8 (11758183_x_at) / RFU CNN1 (11734310_a_at) / Fold change /veh CNN1 (11734310_a_at) / RFU VPS37D (11726825_at) / Fold change /veh VPS37D (11726825_at) / RFU C10orf10 (11716522_x_at) / Fold change /veh C10orf10 (11716522_x_at) / RFU KIR2DL2 /// KIR2DL4 /// KIR2DL5A /// KIR2DL5B /// KIR2DS1 /// KIR2DS2 /// KIR2DS3 /// KIR2DS4 /// KIR3DL3 /// KIR3DL3 /// KIR3DS1 (11738374_at) / Fold change /veh KIR2DL2 /// KIR2DL4 /// KIR2DL5A /// KIR2DL5B /// KIR2DS1 /// KIR2DS2 /// KIR2DS3 /// KIR2DS4 /// KIR3DL3 /// KIR3DL3 /// KIR3DS1 (11738374_at) / RFU C1QL1 (11718748_at) / Fold change /veh C1QL1 (11718748_at) / RFU TMPRSS4 (11747572_a_at) / Fold change /veh TMPRSS4 (11747572_a_at) / RFU HAMP (11756126_x_at) / Fold change /veh HAMP (11756126_x_at) / RFU RNFT2 (11725882_a_at) / Fold change /veh RNFT2 (11725882_a_at) / RFU NR4A2 (11747474_a_at) / Fold change /veh NR4A2 (11747474_a_at) / RFU ABCC12 (11746883_a_at) / Fold change /veh ABCC12 (11746883_a_at) / RFU TMEM136 (11760407_x_at) / Fold change /veh TMEM136 (11760407_x_at) / RFU CLDN22 /// WWC2 (11732394_at) / Fold change /veh CLDN22 /// WWC2 (11732394_at) / RFU HLA-DPB1 (11760878_x_at) / Fold change /veh HLA-DPB1 (11760878_x_at) / RFU SPINT1 (11716480_a_at) / Fold change /veh SPINT1 (11716480_a_at) / RFU GAP43 (11754022_s_at) / Fold change /veh GAP43 (11754022_s_at) / RFU A4GNT (11735810_at) / Fold change /veh A4GNT (11735810_at) / RFU PRB3 (11715151_x_at) / Fold change /veh PRB3 (11715151_x_at) / RFU TUBB4B (11761932_at) / Fold change /veh TUBB4B (11761932_at) / RFU CAPN14 (11732068_a_at) / Fold change /veh CAPN14 (11732068_a_at) / RFU TMCC2 (11721928_a_at) / Fold change /veh TMCC2 (11721928_a_at) / RFU IRGQ (11745062_a_at) / Fold change /veh IRGQ (11745062_a_at) / RFU FAM174B (11720279_a_at) / Fold change /veh FAM174B (11720279_a_at) / RFU TMPRSS4 (11748680_a_at) / Fold change /veh TMPRSS4 (11748680_a_at) / RFU FAM212B (11763350_a_at) / Fold change /veh FAM212B (11763350_a_at) / RFU PLEKHG5 (11743358_a_at) / Fold change /veh PLEKHG5 (11743358_a_at) / RFU ZSCAN30 (11745921_a_at) / Fold change /veh ZSCAN30 (11745921_a_at) / RFU CMKLR1 (11741424_a_at) / Fold change /veh CMKLR1 (11741424_a_at) / RFU LOC101060620 /// MAPK8IP1 (11723275_at) / Fold change /veh LOC101060620 /// MAPK8IP1 (11723275_at) / RFU SPTSSB (11747773_x_at) / Fold change /veh SPTSSB (11747773_x_at) / RFU PRSS12 (11739890_at) / Fold change /veh PRSS12 (11739890_at) / RFU BIN1 (11741810_x_at) / Fold change /veh BIN1 (11741810_x_at) / RFU WNT11 (11732464_a_at) / Fold change /veh WNT11 (11732464_a_at) / RFU C10orf10 (11716521_a_at) / Fold change /veh C10orf10 (11716521_a_at) / RFU C5orf56 (11738089_at) / Fold change /veh C5orf56 (11738089_at) / RFU CYB561 (11721691_x_at) / Fold change /veh CYB561 (11721691_x_at) / RFU ANKRD19P (11752326_a_at) / Fold change /veh ANKRD19P (11752326_a_at) / RFU OR2T12 /// OR2T33 /// OR2T8 (11738714_s_at) / Fold change /veh OR2T12 /// OR2T33 /// OR2T8 (11738714_s_at) / RFU VCAN (11748164_a_at) / Fold change /veh VCAN (11748164_a_at) / RFU JSRP1 (11732532_at) / Fold change /veh JSRP1 (11732532_at) / RFU KRTAP10-11 (11738290_x_at) / Fold change /veh KRTAP10-11 (11738290_x_at) / RFU MYO3A (11730013_a_at) / Fold change /veh MYO3A (11730013_a_at) / RFU EBF3 (11725865_a_at) / Fold change /veh EBF3 (11725865_a_at) / RFU CAMK2N1 (11719241_x_at) / Fold change /veh CAMK2N1 (11719241_x_at) / RFU C5orf56 (11738088_a_at) / Fold change /veh C5orf56 (11738088_a_at) / RFU OLFML3 (11715873_a_at) / Fold change /veh OLFML3 (11715873_a_at) / RFU LOC100653217 /// NTM (11731650_a_at) / Fold change /veh LOC100653217 /// NTM (11731650_a_at) / RFU MAPK11 (11762145_a_at) / Fold change /veh MAPK11 (11762145_a_at) / RFU FIZ1 (11724087_x_at) / Fold change /veh FIZ1 (11724087_x_at) / RFU OASL (11726364_x_at) / Fold change /veh OASL (11726364_x_at) / RFU SOX15 (11748057_x_at) / Fold change /veh SOX15 (11748057_x_at) / RFU CD79A (11719716_a_at) / Fold change /veh CD79A (11719716_a_at) / RFU HIST1H1D (11736915_at) / Fold change /veh HIST1H1D (11736915_at) / RFU CASKIN2 (11723855_a_at) / Fold change /veh CASKIN2 (11723855_a_at) / RFU LOC730098 (11760151_x_at) / Fold change /veh LOC730098 (11760151_x_at) / RFU OR4N2 (11742367_at) / Fold change /veh OR4N2 (11742367_at) / RFU PRRT2 (11749266_a_at) / Fold change /veh PRRT2 (11749266_a_at) / RFU SNX32 (11753110_a_at) / Fold change /veh SNX32 (11753110_a_at) / RFU CDHR5 (11726645_a_at) / Fold change /veh CDHR5 (11726645_a_at) / RFU RCAN1 (11760418_a_at) / Fold change /veh RCAN1 (11760418_a_at) / RFU FAM167A (11723789_a_at) / Fold change /veh FAM167A (11723789_a_at) / RFU FAM26E (11764081_at) / Fold change /veh FAM26E (11764081_at) / RFU ISYNA1 (11749810_s_at) / Fold change /veh ISYNA1 (11749810_s_at) / RFU ACY1 (11761880_at) / Fold change /veh ACY1 (11761880_at) / RFU 11764098_at / Fold change /veh 11764098_at / RFU SAMD14 (11745864_x_at) / Fold change /veh SAMD14 (11745864_x_at) / RFU NPB (11741838_a_at) / Fold change /veh NPB (11741838_a_at) / RFU TMPRSS6 (11731388_a_at) / Fold change /veh TMPRSS6 (11731388_a_at) / RFU KRTAP10-2 (11738614_at) / Fold change /veh KRTAP10-2 (11738614_at) / RFU ARHGAP8 /// PRR5-ARHGAP8 (11727945_x_at) / Fold change /veh ARHGAP8 /// PRR5-ARHGAP8 (11727945_x_at) / RFU KRTAP5-7 /// NADSYN1 (11734609_at) / Fold change /veh KRTAP5-7 /// NADSYN1 (11734609_at) / RFU RASL12 (11751679_a_at) / Fold change /veh RASL12 (11751679_a_at) / RFU CDKN2B (11736163_a_at) / Fold change /veh CDKN2B (11736163_a_at) / RFU PRF1 (11729649_at) / Fold change /veh PRF1 (11729649_at) / RFU, ZNF638 /// ZNF638-IT1 / Fold change vs veh, ZNF638 /// ZNF638-IT1 / RFU, PANK3 / Fold change vs veh, PANK3 / RFU, SH3YL1 / Fold change vs veh, SH3YL1 / RFU, ZEB2 / Fold change vs veh, ZEB2 / RFU, NRIP1 / Fold change vs veh, NRIP1 / RFU, PTTG1IP / Fold change vs veh, PTTG1IP / RFU, CAPN2 / Fold change vs veh, CAPN2 / RFU, MED14 / Fold change vs veh, MED14 / RFU, SNORA58 / Fold change vs veh, SNORA58 / RFU, C1orf63 / Fold change vs veh, C1orf63 / RFU, LRRFIP1 / Fold change vs veh, LRRFIP1 / RFU, NDUFAF7 / Fold change vs veh, NDUFAF7 / RFU, SLC12A2 / Fold change vs veh, SLC12A2 / RFU, IBTK / Fold change vs veh, IBTK / RFU, ESF1 / Fold change vs veh, ESF1 / Fold change vs veh, TMEM50B / RFU, TAOK1 / Fold change vs veh, TAOK1 / RFU, ACBD3 / Fold change vs veh, ACBD3 / RFU, TMA16 / Fold change vs veh, TMA16 / RFU, RWDD3 / Fold change vs veh, RWDD3 / RFU, BCAT1 / Fold change vs veh, BCAT1 / RFU, EDEM3 / Fold change vs veh, EDEM3 / RFU, TMEM33 / Fold change vs veh, TMEM33 / RFU, WDR75 / Fold change vs veh, WDR75 / RFU, AHCTF1 / Fold change vs veh, AHCTF1 / RFU, TFRC / Fold change vs veh, TFRC / RFU, ZDHHC17 / Fold change vs veh, ZDHHC17 / RFU, NOM1 / Fold change vs veh, NOM1 / RFU, ARL8B / Fold change vs veh, ARL8B / RFU, ZBTB11 / Fold change vs veh, ZBTB11 / RFU, TAMM41 / Fold change vs veh, TAMM41 / RFU, KIAA1704 /// LOC100996395 / Fold change vs veh, KIAA1704 /// LOC100996395 / RFU, ING1 / Fold change vs veh, ING1 / RFU, TRMT61B / Fold change vs veh, TRMT61B / RFU, FUBP3 / Fold change vs veh, FUBP3 / RFU, TP53 / Fold change vs veh, TP53 / RFU, TNKS2 / Fold change vs veh, TNKS2 / RFU, ZFP14 / Fold change vs veh, ZFP14 / RFU, ACTR2 / Fold change vs veh, ACTR2 / RFU, PPP3R1 / Fold change vs veh, PPP3R1 / RFU, PIK3R1 / Fold change vs veh, PIK3R1 / RFU, HNRNPA1 / Fold change vs veh, HNRNPA1 / RFU, RNF170 / Fold change vs veh, RNF170 / RFU, ZNF28 / Fold change vs veh, ZNF28 / RFU, RNGTT / Fold change vs veh, RNGTT / RFU, OGT / Fold change vs veh, OGT / RFU, BRD1 / Fold change vs veh, BRD1 / RFU, MARS / Fold change vs veh, MARS / RFU, ZNF655 / Fold change vs veh, ZNF655 / RFU, FAHD1 / Fold change vs veh, FAHD1 / RFU, BDP1 / Fold change vs veh, BDP1 / RFU, LRRCC1 / Fold change vs veh, LRRCC1 / RFU, ARID1A / Fold change vs veh, ARID1A / RFU, ZNF146 / Fold change vs veh, ZNF146 / RFU, ZNF330 / Fold change vs veh, ZNF330 / RFU, GPN3 / Fold change vs veh, GPN3 / RFU, C9orf123 / Fold change vs veh, C9orf123 / RFU, N4BP2L2 / Fold change vs veh, N4BP2L2 / RFU, ARFIP1 / Fold change vs veh, ARFIP1 / RFU, FAM179B / Fold change vs veh, FAM179B / RFU, BCL10 / Fold change vs veh, BCL10 / RFU, UHRF1BP1L / Fold change vs veh, UHRF1BP1L / RFU, BET1 / Fold change vs veh, BET1 / RFU, CNOT2 / Fold change vs veh, CNOT2 / RFU, ZNF268 / Fold change vs veh, ZNF268 / Fold change vs veh, ZNF507 / RFU, DGCR2 / Fold change vs veh, DGCR2 / RFU, WDSUB1 / Fold change vs veh, WDSUB1 / Fold change vs veh, HSP90B1 /// MIR3652 / RFU, ADSS / Fold change vs veh, ADSS / RFU, GK / Fold change vs veh, GK / RFU, ZNF148 / Fold change vs veh, ZNF148 / RFU, TAF9 / Fold change vs veh, TAF9 / RFU, SLC1A5 / Fold change vs veh, SLC1A5 / RFU, SLMO2 / Fold change vs veh, SLMO2 / RFU, ABCC4 / Fold change vs veh, ABCC4 / RFU, LOC101060439 /// RAP1B / Fold change vs veh, LOC101060439 /// RAP1B / RFU, RFX7 / Fold change vs veh, RFX7 / RFU, GTPBP10 / Fold change vs veh, GTPBP10 / RFU, CNEP1R1 / Fold change vs veh, CNEP1R1 / RFU, BIVM-ERCC5 /// ERCC5 / Fold change vs veh, BIVM-ERCC5 /// ERCC5 / RFU, ILF3 / Fold change vs veh, ILF3 / RFU 11762660_at / Fold change /veh 11762660_at / RFU VCAN (11757783_s_at) / Fold change /veh VCAN (11757783_s_at) / RFU DDX43 (11728927_at) / Fold change /veh DDX43 (11728927_at) / RFU KRT8 (11758188_x_at) / Fold change /veh KRT8 (11758188_x_at) / RFU NKD1 (11759106_at) / Fold change /veh NKD1 (11759106_at) / RFU SRD5A1 (11742802_a_at) / Fold change /veh SRD5A1 (11742802_a_at) / RFU TPSAB1 /// TPSB2 (11721975_s_at) / Fold change /veh TPSAB1 /// TPSB2 (11721975_s_at) / RFU GSTM3 (11746129_a_at) / Fold change /veh GSTM3 (11746129_a_at) / RFU IL23R (11737362_x_at) / Fold change /veh IL23R (11737362_x_at) / RFU TMEM51 (11727254_a_at) / Fold change /veh TMEM51 (11727254_a_at) / RFU PIWIL2 (11732686_x_at) / Fold change /veh PIWIL2 (11732686_x_at) / RFU ORM1 (11744905_x_at) / Fold change /veh ORM1 (11744905_x_at) / RFU CCDC152 (11743942_at) / Fold change /veh CCDC152 (11743942_at) / RFU ECM1 (11717891_a_at) / Fold change /veh ECM1 (11717891_a_at) / RFU IL23R (11748794_a_at) / Fold change /veh IL23R (11748794_a_at) / RFU TNFAIP8L3 (11732012_x_at) / Fold change /veh TNFAIP8L3 (11732012_x_at) / RFU MBOAT4 (11741988_at) / Fold change /veh MBOAT4 (11741988_at) / RFU 11764193_at / Fold change /veh 11764193_at / RFU TMEM53 (11763286_at) / Fold change /veh TMEM53 (11763286_at) / RFU MAGEB2 (11727129_at) / Fold change /veh MAGEB2 (11727129_at) / RFU TMEM200A (11744735_a_at) / Fold change /veh TMEM200A (11744735_a_at) / RFU CCDC152 (11751479_a_at) / Fold change /veh CCDC152 (11751479_a_at) / RFU FAM211A (11726209_a_at) / Fold change /veh FAM211A (11726209_a_at) / RFU RGS16 (11746705_a_at) / Fold change /veh RGS16 (11746705_a_at) / RFU VCAN (11755009_s_at) / Fold change /veh VCAN (11755009_s_at) / RFU RHOB (11743442_s_at) / Fold change /veh RHOB (11743442_s_at) / RFU RGS16 (11720943_a_at) / Fold change /veh RGS16 (11720943_a_at) / RFU RGS16 (11720944_at) / Fold change /veh RGS16 (11720944_at) / RFU, VPS4B / Fold change vs veh, VPS4B / RFU, CREB1 / Fold change vs veh, CREB1 / RFU, DNAJC13 / Fold change vs veh, DNAJC13 / RFU, GNAQ / Fold change vs veh, GNAQ / RFU, CDK5R1 / Fold change vs veh, CDK5R1 / RFU, ZRANB3 / Fold change vs veh, ZRANB3 / RFU, CUL4A / Fold change vs veh, CUL4A / RFU, CCNY / Fold change vs veh, CCNY / RFU, UFL1 / Fold change vs veh, UFL1 / RFU, COG3 / Fold change vs veh, COG3 / RFU, DIAPH2 / Fold change vs veh, DIAPH2 / RFU, SKA2 / Fold change vs veh, SKA2 / RFU, AFF3 / Fold change vs veh, AFF3 / RFU, LMF1 / Fold change vs veh, LMF1 / RFU, IPO11 / Fold change vs veh, IPO11 / RFU, DFFB / Fold change vs veh, DFFB / RFU, FOXP1 / Fold change vs veh, FOXP1 / RFU, CARD8 / Fold change vs veh, CARD8 / RFU, STRN3 / Fold change vs veh, STRN3 / RFU, ADK / Fold change vs veh, ADK / RFU, RASSF2 / Fold change vs veh, RASSF2 / RFU, WIPF1 / Fold change vs veh, WIPF1 / RFU, LARP1B / Fold change vs veh, LARP1B / RFU, RASA1 / Fold change vs veh, RASA1 / RFU, RB1 / Fold change vs veh, RB1 / RFU, PPFIA1 / Fold change vs veh, PPFIA1 / RFU, MAT2A / Fold change vs veh, MAT2A / RFU, CCT5 / Fold change vs veh, CCT5 / RFU, WDR92 / Fold change vs veh, WDR92 / RFU, CUX1 / Fold change vs veh, CUX1 / RFU, TTC7A / Fold change vs veh, TTC7A / RFU, TMEM135 / Fold change vs veh, TMEM135 / RFU, DEPTOR / Fold change vs veh, DEPTOR / RFU, CPM / Fold change vs veh, CPM / RFU, DNAJB6 / Fold change vs veh, DNAJB6 / RFU, CACNA2D3 / Fold change vs veh, CACNA2D3 / RFU, DTX4 / Fold change vs veh, DTX4 / RFU, TFCP2 / Fold change vs veh, TFCP2 / RFU, GMCL1 /// GMCL1P1 / Fold change vs veh, GMCL1 /// GMCL1P1 / RFU, AEBP2 / Fold change vs veh, AEBP2 / RFU, SNHG1 /// SNORD22 /// SNORD25 /// SNORD26 /// SNORD27 /// SNORD28 /// SNORD29 /// SNORD31 / Fold change vs veh, SNHG1 /// SNORD22 /// SNORD25 /// SNORD26 /// SNORD27 /// SNORD28 /// SNORD29 /// SNORD31 / Fold change (Aza/veh), C12orf56 (ProbeSet 11735607_a_at) / Fold change (ACY-1035/veh), C12orf56 (ProbeSet 11735607_a_at) / Fold change (Aza/veh), FGFR1OP (ProbeSet 11751329_s_at) / Fold change (ACY-1035/veh), FGFR1OP (ProbeSet 11751329_s_at) / Fold change (Aza/veh), VPS36 (ProbeSet 11739960_a_at) / Fold change (ACY-1035/veh), VPS36 (ProbeSet 11739960_a_at) / RFU SYPL1 (11715823_x_at) / Fold change /veh SYPL1 (11715823_x_at) / RFU IGFBP7 (11715501_s_at) / Fold change /veh IGFBP7 (11715501_s_at) / RFU REEP3 (11722064_at) / Fold change /veh REEP3 (11722064_at) / RFU IGLL1 (11728026_x_at) / Fold change /veh IGLL1 (11728026_x_at): dose or concentration left out as unconfirmed. As to conditions: ProbeSet 11760938_a_at; LIST D.

The results in this text go back to publication PMC5218480 (PLoS ONE, 2017).

Take `Nc1ccc(-c2cccs2)cc1NC(=O)c1ccc2c(c1)cc(C1CC1)n2CCN1CCOCC1` [ACY-1035]: the “Fold change vs veh, MAT2A” value is on record as 0.84.
